Measurements as given in ChEMBL document CHEMBL3244349, “5,6,7,8-Tetrahydroguinolines. 4. Antiulcer and antisecretory activity of 5,6,7,8-tetrahydroquinolinenitriles and -thioamides” (1977).
Calls of active or inactive are those of the source. No cut-off for these calls is given here.

What was measured:
Rattus norvegicus [1] = assay: Antiulcer activity in po dosed Sprague-Dawley rat assessed as dose required to inhibition of cold-restraint induced gastric erosions after 3 hrs; type: functional, Stomach
Rattus norvegicus [2] = assay: Antisecretory activity in four-hours pylorus-ligated Sprague-Dawley rat assessed as inhibition of basal gastric secretion at 30 mg/kg administered intraduodenally; type: functional; conditions: Stomach; for inhibition in vivo at 30 mg/kg: 4 h, route intraduodenal
Rattus norvegicus [3] = assay: Antisecretory activity in four-hours pylorus-ligated Sprague-Dawley rat assessed as inhibition of basal gastric secretion at 10 mg/kg administered intraduodenally; type: functional, organism-based; parameters: dose 10 mg/kg; conditions: Stomach

Structure (SMILES)	Effective oral dose inhibiting gastric erosions (Rattus norvegicus [1]) [mg/kg]	inhibition (Rattus norvegicus [2])	inhibition in vivo at 30 mg/kg (Rattus norvegicus [2]) [%]	inhibition (Rattus norvegicus [3])
CNC(=S)C1(C(=S)NC)CCc2cc(C)cnc21	100	inactive	–	–
Cc1cnc2c(c1)CCC2C(N)=S.Cl (centres undefined)	30	inactive	–	–
Cc1cc(C)c2c(n1)C(C(N)=S)CCC2 (centres undefined)	–	–	< 70	–
NC(=S)C1CCCc2c1ncc1c2CCCC1 (centres undefined)	30	–	< 70	–
Cc1cnc2c(c1)CCCC2C(N)=S.Cl (centres undefined) [TIQUINAMIDE HYDROCHLORIDE]	10	–	–	Active
Cc1cnc2c(c1)CCCC2C(=S)Nc1ccccc1 (centres undefined)	100	inactive	–	–
Cc1cnc2c(c1)CCCC2C(=S)NCCCc1ccccc1.Cl (centres undefined)	100	inactive	–	–
Cl.NC(=S)C1CCCc2ccc(-c3ccccc3)nc21 (centres undefined)	30	inactive	–	–
CNC(=S)C1(OC)CCCc2cc(C)cnc21 (centres undefined)	–	inactive	–	–
Cc1cnc2c(c1)CCCC2C(=S)N(C)C (centres undefined)	100	inactive	–	–
Cc1ccnc2c1CCCC2C(N)=S.Cl (centres undefined)	30	–	–	Active
CC1CNC2C(CCCC2C(N)=S)C1 (centres undefined)	–	inactive	–	–
Cc1cnc2c(c1)CCCC2C1=NCCCN1.Cl (centres undefined)	100	inactive	–	–
CCc1ccc2c(n1)C(C(N)=S)CCC2 (centres undefined)	–	–	< 70	–
CCCCNC(=S)C1CCCc2cc(C)cnc21.Cl (centres undefined)	100	–	< 70	–
NC(=S)Cc1ccc2c(n1)CCCC2	30	inactive	–	–
Cc1cnc2c(c1)CCC(C)(C)C2C(N)=S.Cl (centres undefined)	100	inactive	–	–
CNC(=S)C1CCCc2cccnc21.Cl (centres undefined)	3	–	–	Active
CC(C)(C)c1ccc2c(n1)C(C(N)=S)CCC2 (centres undefined)	30	inactive	–	–
Cc1cnc2c(c1)CCCC2C#N.Cl (centres undefined)	100	–	< 70	–
NC(=S)c1cccc2cccnc12	–	–	–	Active
Cc1cc2c([n+]([O-])c1)C(C#N)CCC2 (centres undefined)	100	inactive	–	–
Cl.NC(=S)C1CCCc2cc3ccccc3nc21 (centres undefined)	30	inactive	–	–
NC(=O)C1CCCc2ccc(-c3ccccc3)nc21 (centres undefined)	100	–	–	–
CNC(=S)C1(C(=S)NC)CCCc2cccnc21.Cl	100	inactive	–	–
N#CC1CCCc2ccc(-c3ccccc3)nc21 (centres undefined)	100	inactive	–	–

Structure (SMILES)	Effective oral dose inhibiting gastric erosions (Rattus norvegicus [1]) [mg/kg]	inhibition (Rattus norvegicus [2])	inhibition in vivo at 30 mg/kg (Rattus norvegicus [2]) [%]	inhibition (Rattus norvegicus [3])
Cc1cnc2c(c1)C(C)CCC2C(N)=S.Cl (centres undefined)	30	–	–	Active
CNC(=S)C1CCCc2c1ncc1c2CCCC1 (centres undefined)	100	inactive	–	–
Cc1cnc2c(c1)CCCC2C1=NCCN1.Cl (centres undefined)	100	inactive	–	–
Cc1ccc2c(n1)C(C(N)=S)CCC2 (centres undefined)	10	–	–	Active
Cc1cnc2c(c1C)CCCC2C(N)=S (centres undefined)	–	–	> 70	–
Cl.NC(=S)C1CCCCc2cc3c(nc21)CCCCC3 (centres undefined)	100	inactive	–	–
CC(=O)OC1(C(N)=S)CCCc2cc(C)cnc21 (centres undefined)	–	inactive	–	–
CNC(=S)C1CCCc2cc(C)cnc21 (centres undefined)	30	–	< 10	–
NC(=S)C1CCCc2cc3c(nc21)CCCC3 (centres undefined)	100	–	< 70	–
CCCCc1ccc2c(n1)C(C(N)=S)CCC2 (centres undefined)	100	–	< 70	–
NC(=S)c1cccc2c1NCCC2	–	inactive	–	–
Cc1cc2c([n+]([O-])c1)C(C(N)=S)CCC2 (centres undefined)	100	inactive	–	–
NC(=S)C1CCCc2cc3c(nc21)CCCCC3 (centres undefined)	30	–	< 70	–
CNC(=S)C1CCCc2cc3ccccc3nc21 (centres undefined)	–	–	< 10	–
Cl.NC(=S)C1CCc2cc3c(nc21)CCC3 (centres undefined)	100	–	< 70	–
Cl.NC(=S)C1CCCc2cccnc21 (centres undefined)	3	–	–	Active
Cc1cc(-c2ccccc2)c2c(n1)C(C(N)=S)CCC2 (centres undefined)	–	inactive	–	–
Cc1cnc2c(c1)CCCC2C(N)=O (centres undefined)	100	–	–	–
Cc1cnc2c(c1)CCCC2(C)C(N)=S.Cl (centres undefined)	100	inactive	–	–
Cc1cnc2c(c1)CCCC2C(=S)NCc1ccccc1.Cl (centres undefined)	100	inactive	–	–
CNC(=S)C1(C(=S)NC)CCc2cc3ccccc3nc21.Cl	100	inactive	–	–
Cl.NC(=S)C1CCCc2cc3c(nc21)CCC3 (centres undefined)	100	–	< 70	–
N#CC1CCCc2cccnc21 (centres undefined)	–	–	< 70	–
Cc1cnc2c(c1)CC(C)CC2C(N)=S.Cl (centres undefined)	10	–	> 70	–
Cc1cnc2c(c1)CCCC2c1nc(C)cs1.Cl (centres undefined)	100	inactive	–	–
